Measured values published in US20070128217A1 (priority 2003, published 2007).

Assays:
[1] = tested on: antibodies in sera from SARS patients (sera 1a, 1b, 2, 6, 37, 62, London, SARS-yellow, SARS-green); assay type: binding, human; set-up: Binding of serum 6 to linear peptides of protein X1 of SARS-CoV Urbani / Binding of serum 37 to linear peptides of protein X1 of SARS-CoV Urbani / Binding of serum 6 to looped/cyclic peptide (PEPSCAN-ELISA) / Binding of serum 37 to looped/cyclic peptide (PEPSCAN-ELISA) / Binding of serum 37 to looped/cyclic peptides of protein X1 of SARS-CoV Urbani / Binding of serum 6 to linear peptides of protein X2 / Binding of serum 37 to linear peptides of protein X2 / Binding of serum 37 to looped/cyclic peptides of protein X2 of SARS-CoV Urbani / Binding of serum 6 to linear peptides of protein M of SARS-CoV Urbani / Binding of serum 37 to linear peptides of protein M of SARS-CoV Urbani / Binding of serum 6 to looped/cyclic peptides of protein M of SARS-CoV Urbani / Binding of serum 37 to looped/cyclic peptides of protein M of SARS-CoV Urbani / Binding of serum 6 to linear peptides of protein X3 of SARS-CoV Urbani / Binding of serum 37 to linear peptides of protein X3 of SARS-CoV Urbani / Binding of serum 37 to looped/cyclic peptides of protein X3 of SARS-CoV Urbani / Binding of serum 6 to linear peptides of protein X4 of SARS-CoV Urbani / Binding of serum 37 to linear peptides of protein X4 of SARS-CoV Urbani / Binding of serum 37 to looped/cyclic peptides of protein X4 of SARS-CoV Urbani / Binding of serum 6 to linear peptides of protein X5 of SARS-CoV Urbani / Binding of serum 37 to linear peptides of protein X5 of SARS-CoV Urbani / Binding of serum 37 to looped/cyclic peptides of protein X5 of SARS-CoV Urbani / Binding of serum 6 to linear peptides of protein N of SARS-CoV Urbani / Binding of serum 37 to linear peptides of protein N of SARS-CoV Urbani / Binding of serum 6 to linear peptide (PEPSCAN-ELISA) / Binding of serum 1a to looped/cyclic peptides of protein N of SARS-CoV Urbani / Binding of serum 1b to looped/cyclic peptides of protein N of SARS-CoV Urbani / Binding of serum 2 to looped/cyclic peptides of protein N of SARS-CoV Urbani / Binding of serum 6 to looped/cyclic peptides of protein N of SARS-CoV Urbani / Binding of serum 37 to looped/cyclic peptides of protein N of SARS-CoV Urbani / Binding of serum 62 to looped/cyclic peptides of protein N of SARS-CoV Urbani / Binding of serum London to looped/cyclic peptides of protein N of SARS-CoV Urbani / Binding of serum SARS-green to looped/cyclic peptides of protein N of SARS-CoV Urbani: unit not given here
[2] = tested on: control sera (pooled serum of ten healthy LUMC hospital workers; commercial negative donor pooled serum from the Dutch bloodbank); assay type: binding, human; set-up: Binding of Control serum LUMC to linear peptides / Binding of Control serum Blood-bank to linear peptides / Binding of Control serum LUMC to looped peptides / Binding of Control Serum Blood-Bank to Looped peptides / Binding of Control serum LUMC to linear peptides of the protein M of SARS-CoV Urbani / Binding of Control serum Blood-bank to linear peptides of the protein M of SARS-CoV Urbani / Binding of Control serum LUMC to looped peptides of the protein M of SARS-CoV Urbani / Binding of Control Serum Blood-Bank to Looped peptides of the protein M of SARS-CoV Urbani: unit not given here
[3] = tested on: rabbit serum obtained by immunizing a rabbit with the SARS-CoV strain Frankfurt 1; assay type: binding; set-up: Binding of a rabbit serum to linear peptides / Binding of a rabbit serum to looped peptides / Rabbit serum linear peptides / Rabbit serum looped peptides / Binding of a rabbit serum to linear peptides of protein N of SARS-CoV Urbani (Rabbit serum linear peptides) / Binding of a rabbit serum to looped/cyclic peptides of protein N of SARS-CoV Urbani (Rabbit serum looped peptides): unit not given here
[4] = tested on: recombinant human anti-SARS-CoV antibody 03-018; assay type: binding; set-up: Binding of antibody 03-018 to linear peptides of the N protein of SARS-CoV Urbani / Binding of antibody 03-018 to looped/cyclic peptides of the N protein of SARS-CoV Urbani: unit not given here

Sequence	Binding of serum 1a to linear peptides of protein N of SARS-CoV Urbani [1]	Binding of serum 1b to linear peptides of protein N of SARS-CoV Urbani [1]	Binding of serum 2 to linear peptides of protein N of SARS-CoV Urbani [1]	Binding of serum 6 to linear peptides of protein N of SARS-CoV Urbani [1]	Binding of serum 37 to linear peptides of protein N of SARS-CoV Urbani [1]	Binding of serum 62 to linear peptides of protein N of SARS-CoV Urbani [1]	Binding of serum London to linear peptides of protein N of SARS-CoV Urbani [1]	Binding of serum SARS-green to linear peptides of protein N of SARS-CoV Urbani [1]	Binding of serum SARS-yellow to linear peptides of protein N of SARS-CoV Urbani [1]	Binding of a rabbit serum to linear peptides of protein N of SARS-CoV Urbani (Rabbit serum linear peptides) [3]	Binding of a rabbit serum to looped/cyclic peptides of protein N of SARS-CoV Urbani (Rabbit serum looped peptides) [3]	Binding of serum 1a to looped/cyclic peptides of protein N of SARS-CoV Urbani [1]	Binding of serum 1b to looped/cyclic peptides of protein N of SARS-CoV Urbani [1]	Binding of serum 2 to looped/cyclic peptides of protein N of SARS-CoV Urbani [1]	Binding of serum 6 to looped/cyclic peptides of protein N of SARS-CoV Urbani [1]	Binding of serum 37 to looped/cyclic peptides of protein N of SARS-CoV Urbani [1]	Binding of serum 62 to looped/cyclic peptides of protein N of SARS-CoV Urbani [1]	Binding of serum London to looped/cyclic peptides of protein N of SARS-CoV Urbani [1]	Binding of serum SARS-green to looped/cyclic peptides of protein N of SARS-CoV Urbani [1]	Binding of serum SARS-yellow to looped/cyclic peptides of protein N of SARS-CoV Urbani [1]	other results
PQRQKKQPTVTLLPA	0.3	0.2	0.3	0.2	0.7	0.7	0.5	0.5	0.6	0.2	0.7										Recognition of the peptide by sera of SARS-CoV infected individuals, and form (linear, looped/cyclic) in which it is recognized [1]: recognized in looped/cyclic form; Control Serum Blood-Bank Looped peptides [2]: 0.9; Control serum Blood-bank linear peptides [2]: 0.8; Control serum LUMC linear peptides [2]: 0.7; Control serum LUMC looped peptides [2]: 0.7; Binding of antibody 03-018 to linear peptides of the N protein of SARS-CoV Urbani [4]: 0.1; Binding of antibody 03-018 to looped/cyclic peptides of the N protein of SARS-CoV Urbani [4]: 0.3
PQSNQRSAPRITFGG	0.3	0.2	0.2	0.1	0.6	0.6	0.4	0.3	0.5			0.5	0.3	0.5	0.5	0.8	0.7	0.5	0.4	0.6	Binding of Control Serum Blood-Bank to Looped peptides [2]: 0.8; Binding of Control serum Blood-bank to linear peptides [2]: 0.5; Binding of Control serum LUMC to linear peptides [2]: 0.6; Binding of Control serum LUMC to looped peptides [2]: 0.7; Recognition of the peptide by the rabbit serum [3]: also recognized; Recognition of the peptide by antibody 03-018 [4]: recognized
PRGQGVPINTNSGPD	0.2	0.1	0.1	0.1	0.6	0.4	0.4	0.2	0.6	0.1	0.0	0.2	0.1	0.2	0.1	0.3	0.2	0.2	0.1	0.1	Binding of Control Serum Blood-Bank to Looped peptides [2]: 0.4; Binding of Control serum Blood-bank to linear peptides [2]: 0.7; Binding of Control serum LUMC to linear peptides [2]: 0.5; Binding of Control serum LUMC to looped peptides [2]: 0.3; Binding of antibody 03-018 to linear peptides of the N protein of SARS-CoV Urbani [4]: 0.1; Binding of antibody 03-018 to looped/cyclic peptides of the N protein of SARS-CoV Urbani [4]: 0.2
PRITFGGPTDSTDNN	0.2	0.1	0.2	0.1	0.7	0.6	0.5	0.6	0.3	0.3	0.4	0.3	0.2	0.3	0.2	0.7	0.5	0.3	0.8	0.4	Binding of Control Serum Blood-Bank to Looped peptides [2]: 0.6; Binding of Control serum Blood-bank to linear peptides [2]: 0.6; Binding of Control serum LUMC to linear peptides [2]: 0.5; Binding of Control serum LUMC to looped peptides [2]: 0.6; Recognition of the peptide by antibody 03-018 [4]: recognized
